For 2 compounds, EC50, Selectivity ratio and ED50 results are on record in ChEMBL document CHEMBL3813619, “Feeling Nature's PAINS: Natural Products, Natural Product Drugs, and Pan Assay Interference Compounds (PAINS)” (J Nat Prod, 2016).

Assay [1] concerns the target Potassium voltage-gated channel subfamily A member 3 (Mus musculus, UniProt P16390). Briefly: Inhibition of mouse Kv1.3 expressed in L929 cells at -80 mV holding potential by whole cell patch-clamp method. The assay is classed as cell-based.
The nature of assay [2]: Selectivity ratio of mouse Kv1.3 to ratio of KCa3.1 (unknown origin).
For a further assay, the system named is Rattus norvegicus. The experiment in a line: Antiinflammatory activity in po dosed rat assessed as inhibition of reverse passive arthus reaction. The assay is classed as functional.

Sequence of Potassium voltage-gated channel subfamily A member 3 (P16390 whole entry): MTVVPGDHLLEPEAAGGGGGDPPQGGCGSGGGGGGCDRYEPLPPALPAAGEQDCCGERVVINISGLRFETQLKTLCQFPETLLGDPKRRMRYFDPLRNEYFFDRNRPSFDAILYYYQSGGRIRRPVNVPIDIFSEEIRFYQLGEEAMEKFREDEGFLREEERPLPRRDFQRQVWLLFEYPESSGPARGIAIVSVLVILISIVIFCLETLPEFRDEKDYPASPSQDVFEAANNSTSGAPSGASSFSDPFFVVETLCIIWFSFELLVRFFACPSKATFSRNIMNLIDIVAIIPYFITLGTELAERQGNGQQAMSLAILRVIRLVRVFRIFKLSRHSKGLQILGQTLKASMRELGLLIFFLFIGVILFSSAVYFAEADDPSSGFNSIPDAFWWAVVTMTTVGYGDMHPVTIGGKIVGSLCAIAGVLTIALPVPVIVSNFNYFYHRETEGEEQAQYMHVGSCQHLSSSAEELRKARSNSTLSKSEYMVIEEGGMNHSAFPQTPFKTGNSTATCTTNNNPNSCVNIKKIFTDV

What is called EC50 is the concentration needed to bring the measured effect to its halfway point. `COc1c(C(C)=O)c(O)c(OCCCc2ccccc2)c2occc12` came in with a half-maximal effective concentration (EC50) in assay [1] of 1 µM. Further, the Selectivity ratio in assay [2] is 10.
Usually ED50 stands for the dose at which the effect has come halfway, by size or by number of responders. As for `Cc1cc(=O)c2c(O)cc(O)c([C@H]3CCN(C)C[C@H]3O)c2o1` [ROHITUKINE], the ED50 in the assay with Rattus norvegicus was 2.5 mg/kg.
